PubChem BioAssay AID2060627 (Molecular Pharmacology Branch, DTP, NCI, 2025)

System: 156681-154-R-J1-PDC complex spheroid viability
Assay: Anticancer human tumor 156681-154-R-J1-PDC patient-derived melanoma cell line growth inhibition [CLK]
Conditions: for IC50: curve of first compound; for viability, T/C: stronger effect = lower value; active = viability on the fitted dose curve at most 10% of control; inactive = the rest
Procedure, shortened: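 Patient-derived tumor cells grown as complex spheroids with HUVEC endothelial cells and mesenchymal stem cells, treated with drug combinations. Concentrations descend in half-log steps from near clinical Cmax, or from 10 microM if Cmax unknown.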

[1] = second compound 0.0316 µM, first compound 0.0316 µM
[2] = second compound 0.0316 µM, first compound 0.1 µM
[3] = second compound 0.1 µM, first compound 0.0316 µM
[4] = second compound 0.1 µM, first compound 0.1 µM
[5] = second compound 0.316 µM, first compound 0.0316 µM
[6] = second compound 0.316 µM, first compound 0.1 µM
[7] = second compound 1 µM, first compound 0.0316 µM
[8] = second compound 1 µM, first compound 0.1 µM
[9] = second compound 3.16 µM, first compound 0.0316 µM
[10] = second compound 3.16 µM, first compound 0.1 µM
[11] = second compound 10 µM, first compound 0.0316 µM
[12] = second compound 10 µM, first compound 0.1 µM
[13] = second compound 0.0316 µM, first compound 0.316 µM
[14] = second compound 0.0316 µM, first compound 1 µM
[15] = second compound 0.0316 µM, first compound 3.16 µM
[16] = second compound 0.0316 µM, first compound 10 µM
[17] = second compound 0.1 µM, first compound 0.316 µM
[18] = second compound 0.1 µM, first compound 1 µM
[19] = second compound 0.1 µM, first compound 3.16 µM
[20] = second compound 0.1 µM, first compound 10 µM
[21] = second compound 0.316 µM, first compound 0.316 µM
[22] = second compound 0.316 µM, first compound 1 µM
[23] = second compound 0.316 µM, first compound 3.16 µM
[24] = second compound 0.316 µM, first compound 10 µM
[25] = second compound 1 µM, first compound 0.316 µM
[26] = second compound 1 µM, first compound 1 µM
[27] = second compound 1 µM, first compound 3.16 µM
[28] = second compound 1 µM, first compound 10 µM
[29] = second compound 3.16 µM, first compound 0.316 µM
[30] = second compound 3.16 µM, first compound 1 µM
[31] = second compound 3.16 µM, first compound 3.16 µM
[32] = second compound 3.16 µM, first compound 10 µM
[33] = second compound 10 µM, first compound 0.316 µM
[34] = second compound 10 µM, first compound 1 µM
[35] = second compound 10 µM, first compound 3.16 µM
[36] = second compound 10 µM, first compound 10 µM
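Also: spheroids exposed to the agents for seven days.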
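For viability, T/C in this document: 100% = DMSO vehicle control viability.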

Cn1ncnc1[C@H]1c2n[nH]c(=O)c3cc(F)cc(c23)N[C@@H]1c1ccc(F)cc1 + CN1CCN(c2cc(C(=O)Nc3cc4cc(-c5cnn(C)c5)ccc4cn3)ccn2)CC1
> 100 nM: IC50 (second compound 0.0316 µM) | IC50 (second compound 0.1 µM)
< 0.316 nM: IC50 (second compound 0.316 µM) | IC50 (second compound 1 µM) | IC50 (second compound 3.16 µM) | IC50 (second compound 10 µM)
inactive: viability, T/C (second compound 0.0316 µM, first compound 0.000316 µM) 88.8% | viability, T/C (second compound 0.0316 µM, first compound 0.001 µM) 91.7% | viability, T/C (second compound 0.0316 µM, first compound 0.00316 µM) 90.5% | viability, T/C (second compound 0.0316 µM, first compound 0.01 µM) 94.8% | viability, T/C [1] 81.8% | viability, T/C [2] 68.7% | viability, T/C (second compound 0.1 µM, first compound 0.000316 µM) 89% | viability, T/C (second compound 0.1 µM, first compound 0.001 µM) 84.5% | viability, T/C (second compound 0.1 µM, first compound 0.00316 µM) 75.2% | viability, T/C (second compound 0.1 µM, first compound 0.01 µM) 85.7% | viability, T/C [3] 66.1% | viability, T/C [4] 59.6% | viability, T/C (second compound 0.316 µM, first compound 0.000316 µM) 18.9% | viability, T/C (second compound 0.316 µM, first compound 0.001 µM) 23.7% | viability, T/C (second compound 0.316 µM, first compound 0.00316 µM) 18.3% | viability, T/C (second compound 0.316 µM, first compound 0.01 µM) 17.5% | viability, T/C [5] 20.4% | viability, T/C [6] 18.6%
active: viability, T/C (second compound 1 µM, first compound 0.000316 µM) 0.18% | viability, T/C (second compound 1 µM, first compound 0.001 µM) 2.71% | viability, T/C (second compound 1 µM, first compound 0.00316 µM) 0.14% | viability, T/C (second compound 1 µM, first compound 0.01 µM) 0.17% | viability, T/C [7] 2.08% | viability, T/C [8] 0.69% | viability, T/C (second compound 3.16 µM, first compound 0.000316 µM) 0.14% | viability, T/C (second compound 3.16 µM, first compound 0.001 µM) 1.63% | viability, T/C (second compound 3.16 µM, first compound 0.00316 µM) 1.37% | viability, T/C (second compound 3.16 µM, first compound 0.01 µM) 0.09% | viability, T/C [9] 1.93% | viability, T/C [10] 0.67% | viability, T/C (second compound 10 µM, first compound 0.000316 µM) 0.13% | viability, T/C (second compound 10 µM, first compound 0.001 µM) 3.21% | viability, T/C (second compound 10 µM, first compound 0.00316 µM) 2.34% | viability, T/C (second compound 10 µM, first compound 0.01 µM) 0.36% | viability, T/C [11] 4.58% | viability, T/C [12] 1.43%

Nc1ccn(C2OC(CO)C(O)C2(F)F)c(=O)n1 (stereo unspecified) + CN1CCN(c2cc(C(=O)Nc3cc4cc(-c5cnn(C)c5)ccc4cn3)ccn2)CC1
< 31.6 nM: IC50 (second compound 0.0316 µM) | IC50 (second compound 0.1 µM) | IC50 (second compound 0.316 µM) | IC50 (second compound 1 µM) | IC50 (second compound 3.16 µM) | IC50 (second compound 10 µM)
active: viability, T/C [7] 0.16% | viability, T/C [8] 0.82% | viability, T/C [25] 0.37% | viability, T/C [26] 1.65% | viability, T/C [27] 0.78% | viability, T/C [28] 1.59% | viability, T/C [9] 0.16% | viability, T/C [10] 1.54% | viability, T/C [29] 0.42% | viability, T/C [30] 0.1% | viability, T/C [31] 4.55% | viability, T/C [32] 0.67% | viability, T/C [11] 0.15% | viability, T/C [12] 2.7% | viability, T/C [33] 0.29% | viability, T/C [34] 4.06% | viability, T/C [35] 1.19% | viability, T/C [36] 2.59%
inactive: viability, T/C [1] 16.4% | viability, T/C [2] 16.1% | viability, T/C [13] 20.3% | viability, T/C [14] 14.8% | viability, T/C [15] 12% | viability, T/C [16] 16.9% | viability, T/C [3] 19% | viability, T/C [4] 13.4% | viability, T/C [17] 12.9% | viability, T/C [18] 12.8% | viability, T/C [19] 10.9% | viability, T/C [20] 12.8% | viability, T/C [5] 13.8% | viability, T/C [6] 14% | viability, T/C [21] 10.1% | viability, T/C [22] 11.7% | viability, T/C [23] 16.5% | viability, T/C [24] 9.83%

O=c1[nH]cc(F)c(=O)[nH]1 + CN1CCN(c2cc(C(=O)Nc3cc4cc(-c5cnn(C)c5)ccc4cn3)ccn2)CC1
inactive: viability, T/C [1] 106% | viability, T/C [2] 104% | viability, T/C [13] 96.2% | viability, T/C [14] 113% | viability, T/C [15] 74.2% | viability, T/C [16] 42% | viability, T/C [3] 99.3% | viability, T/C [4] 77.6% | viability, T/C [17] 83.7% | viability, T/C [18] 84.6% | viability, T/C [19] 57.8% | viability, T/C [20] 34.9% | viability, T/C [5] 17.3% | viability, T/C [6] 21.2% | viability, T/C [21] 21.1% | viability, T/C [22] 20.9% | viability, T/C [23] 20.4% | viability, T/C [24] 16.1%
active: viability, T/C [7] 0.17% | viability, T/C [8] 1.7% | viability, T/C [25] 0.17% | viability, T/C [26] 1.14% | viability, T/C [27] 3.07% | viability, T/C [28] 0.39% | viability, T/C [9] 0.09% | viability, T/C [10] 3.26% | viability, T/C [29] 2.64% | viability, T/C [30] 0.08% | viability, T/C [31] 3.66% | viability, T/C [32] 5.79% | viability, T/C [11] 0.09% | viability, T/C [12] 1.51% | viability, T/C [33] 0.76% | viability, T/C [34] 2.73% | viability, T/C [35] 1.68% | viability, T/C [36] 3.54%
4680 nM: IC50 (second compound 0.1 µM)
7520 nM: IC50 (second compound 0.0316 µM)
< 31.6 nM: IC50 (second compound 0.316 µM) | IC50 (second compound 1 µM) | IC50 (second compound 3.16 µM) | IC50 (second compound 10 µM)
